Numbered stars: 1 amine (or outer) side, 2 acyl side, 3 side chain; on linkers, the order of the positions; unused ones are H or OH. Bridge positions count the residues as written; N and C are the ends. Square brackets hold non-standard residues; d marks the D form. Peptide text beside a SMILES is read from it. I, II: the chains in the order shown. Actinocin(9to1) = Cc1c2oc3c(C)ccc(C(=O)[*:1])c3nc-2c(C(=O)[*:2])c(N)c1=O; NMeV = CN[C@H](C(=O)O)C(C)C; Sar = CNCC(=O)O
Columns and labels:
NIH 3T3 cells = experiment: Apoptosis induction and its reversal in NIH 3T3 cells (morphology, caspase-3 Western blot); assay type: cell-based
[1] = test system: primary mouse macrophages; experiment: Apoptosis induction and its reversal in primary macrophages (morphology); assay type: cell-based
[2] = test system: Mustela putoris furo (Mpf) brain cells; experiment: Apoptosis induction and its reversal in Mpf brain cells (morphology, annexin V-FITC); assay type: cell-based, ferret
[3] = test system: liver cells and NIH 3T3 cells; experiment: Transient actinomycin D exposure after removal of apoptotic inducers (caspase-3 Western blot, trypan blue exclusion); assay type: cell-based
Description: FIG. 14A-14F: Critical contributing factors in reversal of apoptosis. (FIG. 14A) RNA blot for detecting new RNA synthesis in untreated vs. treated and washed (Washed) liver cells 1 h after a 5-h exposure to 4.5% ethanol and with and without transient exposure (1 h, 1 μg/ml) to actinomycin D (AMD). No s4U served as negative control for the probe binding to RNA. (FIG. 14B) Western blot analysis of the cleavage of caspase-3 (Casp-3) on the total lysate of untreated, treated (5-h exposure to 4.5% ethanol for liver cells, 20-h exposure to 10% DMSO for NIH 3T3 cells), and washed liver cells and NIH 3T3 cells with and without transient exposure to actinomycin D (AMD) immediately after removal of apoptotic stimuli. The AMD-exposed cells were cultured in fresh medium for 23 h and then subjected to the analysis. c, cleaved form. […] The AMD exposed-cells were cultured in fresh medium for 23 h and then subjected to the assay. ns, p>0.05; *p<0.05; n=3 independent experiments. Error bars denote SD. (FIG. 14D) A time-course microarray study in liver cells, log 2-fold change of gene expression comparison between ethanol-induced apoptotic cells (RO), untreated cells (Ctrl), and induced cells that were then washed and further cultured in fresh medium for 3 (R3), 6 (R6), 24 (R24), and 48 h (R48). The log 2 signal values from three biological replicates were averaged (geometric mean) for each time point. […] The corresponding cells were exposed to the inhibitors after apoptotic stimuli had been removed from the treated cells and then further cultured for 24 h. ns, p>0.05; *P<0.05; n=3 independent experiments. Error bars denote SD. (FIG. 14F) Proposed model for reversal of apoptosis. Expression of multiple prosurvival factors and new transcripts during reversal of apoptosis promotes cell survival by suppressing the activated apoptotic pathways and repairing the cells.
To gain insight into the mechanism by which cells reverse apoptosis and survive, we first tested whether new transcription is required. […]

[4] = test system: primary mouse liver cells
HeLa cells = experiment: Apoptosis induction and its reversal in HeLa cells expressing caspase biosensor NES-DEVD-YFP-NLS
[5] = transient exposure (1 h, 1 μg/ml) immediately after removal of apoptotic stimuli, then 23 h fresh medium
[6] = 4.3% ethanol 5 h, washed, cultured 2 h

## C[S+](C)[O-] [DMSO, dimethyl sulfoxide]
NIH 3T3 cells; 10% DMSO 20 h, then washed, 24 h
  cells that reversed all signs of apoptosis after removal of the inducer: > 90%
NIH 3T3 cells; 10% DMSO for 20 h
  NIH 3T3 cells exhibiting multiple hallmarks of apoptosis: > 90%
NIH 3T3 cells; NIH 3T3 cells induced with DMSO
  caspase-3 cleavage (Western blot): increase in cleaved caspase-3

## CC(C)(O)/C=C/C(=O)[C@](C)(O)[C@H]1[C@H](O)C[C@@]2(C)[C@@H]3CC=C4[C@@H](C=C(O)C(=O)C4(C)C)[C@]3(C)C(=O)C[C@]12C [cucurbitacin I]
[1]; 1 μM cucurbitacin I 24 h, then removal of inducer for 24 h
  cells that recovered morphology after removal of the inducer: ~90%
[1]; 1 μM cucurbitacin I for 24 h
  cells displaying morphological hallmarks of apoptosis (nuclear condensation, mitochondrial fragmentation, cell shrinkage): Greater than 90%

## C/C1=C\[C@H](C)C[C@H](C)OC(=O)C[C@H](c2ccc(O)cc2)NC(=O)[C@@H](Cc2c(Br)[nH]c3ccccc23)N(C)C(=O)[C@H](C)NC(=O)[C@@H](C)C1 [jasplakinolide]
[2]; 2 μM jasplakinolide 50 h, then removal of inducer for 24 h
  cells that recovered morphology after removal of the inducer: ~90%
[2]; 2 μM jasplakinolide 50 h, annexin V-FITC applied ten minutes before washing
  cells labeled with annexin V-FITC: Greater than 90%
[2]; 2 μM jasplakinolide for 50 h
  cells displaying morphological hallmarks of apoptosis (nuclear condensation, mitochondrial fragmentation, cell shrinkage): Greater than 90%

## Cc1c2oc3c(C)ccc(C(=O)N[C@@H]4C(=O)N[C@H](C(C)C)C(=O)N5CCC[C@H]5C(=O)N(C)CC(=O)N(C)[C@@H](C(C)C)C(=O)O[C@@H]4C)c3nc-2c(C(=O)N[C@@H]2C(=O)N[C@H](C(C)C)C(=O)N3CCC[C@H]3C(=O)N(C)CC(=O)N(C)[C@@H](C(C)C)C(=O)O[C@@H]2C)c(N)c1=O [actinomycin D] (I: T[dV]P[Sar][NMeV] / II: T[dV]P[Sar][NMeV]; ester I:1-I:C, II:1-II:C; linker I:N-II:N via Actinocin(9to1))
[3]; same concentration of actinomycin D
  cell death in control cells not treated with apoptotic inducers: did not cause significant cell death
[3]; [5]
  caspase-3 cleavage (Western blot) after removal of apoptotic inducers: persistence of cleaved caspase-3
  cell death by trypan blue staining after removal of apoptotic inducers: irreversible cell death

## CCO [ethanol]
[4]; 4.5% ethanol 5 h, then washed, 24 h
  cells that reversed all signs of apoptosis after removal of the inducer: > 90%
[4]; 4.5% ethanol for 2.5 h, time-lapse live-cell microscopy
  morphological hallmarks of apoptosis (cell shrinkage, plasma membrane blebbing, nuclear condensation, altered mitochondrial morphology): displayed morphological hallmarks of apoptosis
[4]; 4.5% ethanol for 5 h
  liver cells that shrank and displayed morphological hallmarks of apoptosis: > 80%
[4]; liver cells induced with ethanol
  caspase-3 cleavage (Western blot): increase in cleaved caspase-3
Primary rat heart cells; 4.5% ethanol 5 h, then removal of inducer for 24 h
  cells that recovered morphology after removal of the inducer: ~90%
Primary rat heart cells; 4.5% ethanol 5 h, annexin V-FITC applied ten minutes before washing
  cells labeled with annexin V-FITC: Greater than 90%
Primary rat heart cells; 4.5% ethanol for 5 h
  cells displaying morphological hallmarks of apoptosis (nuclear condensation, mitochondrial fragmentation, cell shrinkage): Greater than 90%
HeLa cells; [6]
  cells that recovered normal morphology after removal of the inducer: > 90%
  recovered cells that retained nuclear YFP: 32%
HeLa cells; 4.3% ethanol for 3 h
  cells exhibiting morphological hallmarks of apoptosis (nuclear condensation, membrane blebbing, cell shrinkage): vast majority
HeLa cells; 4.3% ethanol, then washed
  time to regain normal morphology after removal of the apoptotic inducer: ≤ 2 h
HeLa cells; after reversal of ethanol-induced apoptosis, cytokinesis-block micronucleus assay
  formation of micronuclei after reversal of apoptosis: Increased in formation of micronuclei

From patent publication US11385223B2, “Anastasis biosensor” (THE JOHNS HOPKINS UNIVERSITY, priority 2012, dated 2022)
